# Measured values taken from ChEMBL document CHEMBL1138225, “Synthesis and structure-activity relationships of 3,8-diazabicyclo[4.2.0]octane ligands, potent nicotinic acetylcholine receptor agonists” (J Med Chem, 2006).
# Legend:
# [1] = target: T1, Neuronal acetylcholine receptor; alpha3/beta4 (Homo sapiens, UniProt P30926+P32297); assay: Agonist activity at human alpha-3-beta-4 ACHR expressed in HEK293 cells assessed as change in intracellular calcium concentration by FLIPR; assay type: functional, cell-based
# [2] = target: T2, Neuronal acetylcholine receptor; alpha4/beta2 (Homo sapiens, UniProt P17787+P43681); assay: Maximal agonist activity on human alpha-4-beta-2 ACHR expressed in HEK293 cells assessed as change in intracellular calcium concentration by FLIPR relative to nicotine; assay type: functional, cell-based
# [3] = target: T2, Neuronal acetylcholine receptor; alpha4/beta2; assay: Agonist activity at human alpha4beta2 ACHR expressed in HEK293 cells assessed as change in intracellular calcium concentration by FLIPR; assay type: functional, cell-based
# [4] = target: T1, Neuronal acetylcholine receptor; alpha3/beta4; assay: Maximal agonist activity at human alpha-3-beta-4 ACHR expressed in HEK293 cells assessed as change in intracellular calcium concentration by FLIPR relative to nicotine; assay type: functional, cell-based
# Rattus norvegicus = assay: Activity in rat formalin model measured as reduction in flinches at 0.19 umol/kg, ip; assay type: functional; set-up: scale not given: the % may be the effect or the level left
# [5] = target: Neuronal acetylcholine receptor; alpha4/beta2 (Rattus norvegicus, UniProt P09483+P12390); assay: Displacement of [3H]cytisine from alpha-4-beta-2 ACHR in rat brain homogenate; assay type: tissue-based
# Sequence of Neuronal acetylcholine receptor; alpha4/beta2 (Rattus norvegicus, UniProt P09483+P12390) (P09483 whole entry): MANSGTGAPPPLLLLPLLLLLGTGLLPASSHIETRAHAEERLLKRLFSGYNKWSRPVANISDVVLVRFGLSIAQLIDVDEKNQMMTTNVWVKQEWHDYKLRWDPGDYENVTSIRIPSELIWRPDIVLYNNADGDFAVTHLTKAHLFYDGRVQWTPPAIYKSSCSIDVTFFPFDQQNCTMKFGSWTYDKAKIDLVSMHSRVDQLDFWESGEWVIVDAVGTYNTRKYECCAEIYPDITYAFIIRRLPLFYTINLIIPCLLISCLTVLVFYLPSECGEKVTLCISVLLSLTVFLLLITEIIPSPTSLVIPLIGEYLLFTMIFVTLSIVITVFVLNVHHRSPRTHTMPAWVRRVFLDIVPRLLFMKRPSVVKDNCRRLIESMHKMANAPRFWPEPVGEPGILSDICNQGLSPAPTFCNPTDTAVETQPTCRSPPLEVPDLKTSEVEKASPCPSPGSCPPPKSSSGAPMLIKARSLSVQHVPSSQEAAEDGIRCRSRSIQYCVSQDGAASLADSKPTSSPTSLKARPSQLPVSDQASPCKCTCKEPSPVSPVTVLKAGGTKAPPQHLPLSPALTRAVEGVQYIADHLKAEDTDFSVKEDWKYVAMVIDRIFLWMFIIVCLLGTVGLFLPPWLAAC
# Sequence of Neuronal acetylcholine receptor; alpha4/beta2 (Rattus norvegicus, UniProt P09483+P12390) (P12390 whole entry): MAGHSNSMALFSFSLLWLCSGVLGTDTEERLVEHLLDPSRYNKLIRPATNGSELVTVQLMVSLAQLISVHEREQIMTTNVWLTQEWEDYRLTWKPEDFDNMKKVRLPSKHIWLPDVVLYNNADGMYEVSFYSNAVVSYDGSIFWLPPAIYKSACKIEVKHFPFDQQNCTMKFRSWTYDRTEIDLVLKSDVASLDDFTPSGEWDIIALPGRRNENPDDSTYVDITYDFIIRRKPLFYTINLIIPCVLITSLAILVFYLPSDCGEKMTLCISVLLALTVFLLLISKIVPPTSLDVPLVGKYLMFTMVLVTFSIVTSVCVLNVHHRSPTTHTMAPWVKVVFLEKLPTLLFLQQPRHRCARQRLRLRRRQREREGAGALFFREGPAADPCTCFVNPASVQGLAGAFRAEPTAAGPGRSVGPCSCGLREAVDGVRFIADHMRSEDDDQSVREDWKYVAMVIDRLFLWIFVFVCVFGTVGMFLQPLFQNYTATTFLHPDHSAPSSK
# T2 sequence (P17787 whole entry): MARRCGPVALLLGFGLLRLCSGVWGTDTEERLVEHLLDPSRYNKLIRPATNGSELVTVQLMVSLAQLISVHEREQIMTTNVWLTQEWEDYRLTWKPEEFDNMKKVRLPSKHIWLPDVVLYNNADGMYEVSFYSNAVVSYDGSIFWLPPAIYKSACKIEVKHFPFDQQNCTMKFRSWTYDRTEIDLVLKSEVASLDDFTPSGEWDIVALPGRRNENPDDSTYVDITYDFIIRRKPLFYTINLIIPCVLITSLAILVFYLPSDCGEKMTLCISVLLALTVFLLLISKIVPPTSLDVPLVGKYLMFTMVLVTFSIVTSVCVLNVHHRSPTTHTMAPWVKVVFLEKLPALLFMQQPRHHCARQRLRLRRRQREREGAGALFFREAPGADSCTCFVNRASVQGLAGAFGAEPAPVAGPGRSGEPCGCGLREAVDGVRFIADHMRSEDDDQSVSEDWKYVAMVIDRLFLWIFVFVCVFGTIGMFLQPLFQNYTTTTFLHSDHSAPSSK
# T2 sequence (P43681 whole entry): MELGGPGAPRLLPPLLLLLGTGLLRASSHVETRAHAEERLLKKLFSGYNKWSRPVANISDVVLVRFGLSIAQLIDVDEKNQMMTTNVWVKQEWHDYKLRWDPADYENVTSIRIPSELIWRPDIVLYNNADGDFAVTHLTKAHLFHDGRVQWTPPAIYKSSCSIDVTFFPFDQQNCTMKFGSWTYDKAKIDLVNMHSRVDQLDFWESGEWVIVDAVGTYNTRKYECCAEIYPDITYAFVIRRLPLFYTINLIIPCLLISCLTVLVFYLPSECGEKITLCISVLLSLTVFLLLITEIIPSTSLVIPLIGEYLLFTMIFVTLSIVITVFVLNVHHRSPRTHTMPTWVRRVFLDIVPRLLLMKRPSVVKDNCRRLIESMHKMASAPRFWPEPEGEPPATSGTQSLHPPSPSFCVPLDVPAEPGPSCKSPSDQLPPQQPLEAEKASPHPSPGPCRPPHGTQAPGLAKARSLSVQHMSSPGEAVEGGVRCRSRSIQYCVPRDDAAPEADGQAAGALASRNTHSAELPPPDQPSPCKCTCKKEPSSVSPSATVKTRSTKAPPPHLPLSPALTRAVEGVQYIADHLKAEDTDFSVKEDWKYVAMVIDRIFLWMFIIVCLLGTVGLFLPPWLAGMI
# T1 sequence (P30926 whole entry): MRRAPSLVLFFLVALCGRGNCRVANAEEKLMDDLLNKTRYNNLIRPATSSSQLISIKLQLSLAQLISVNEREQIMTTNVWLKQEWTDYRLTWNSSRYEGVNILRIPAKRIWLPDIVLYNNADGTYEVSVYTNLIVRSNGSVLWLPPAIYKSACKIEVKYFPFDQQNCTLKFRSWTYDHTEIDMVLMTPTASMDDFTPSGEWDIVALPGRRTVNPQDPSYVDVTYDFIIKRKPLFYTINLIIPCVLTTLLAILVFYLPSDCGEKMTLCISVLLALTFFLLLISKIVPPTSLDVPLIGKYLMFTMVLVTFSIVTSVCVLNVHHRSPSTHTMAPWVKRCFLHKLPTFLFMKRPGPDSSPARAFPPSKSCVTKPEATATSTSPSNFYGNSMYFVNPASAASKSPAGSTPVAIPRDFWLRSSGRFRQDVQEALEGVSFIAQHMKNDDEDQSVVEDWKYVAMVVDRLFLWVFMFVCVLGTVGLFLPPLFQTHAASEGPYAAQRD
# T1 sequence (P32297 whole entry): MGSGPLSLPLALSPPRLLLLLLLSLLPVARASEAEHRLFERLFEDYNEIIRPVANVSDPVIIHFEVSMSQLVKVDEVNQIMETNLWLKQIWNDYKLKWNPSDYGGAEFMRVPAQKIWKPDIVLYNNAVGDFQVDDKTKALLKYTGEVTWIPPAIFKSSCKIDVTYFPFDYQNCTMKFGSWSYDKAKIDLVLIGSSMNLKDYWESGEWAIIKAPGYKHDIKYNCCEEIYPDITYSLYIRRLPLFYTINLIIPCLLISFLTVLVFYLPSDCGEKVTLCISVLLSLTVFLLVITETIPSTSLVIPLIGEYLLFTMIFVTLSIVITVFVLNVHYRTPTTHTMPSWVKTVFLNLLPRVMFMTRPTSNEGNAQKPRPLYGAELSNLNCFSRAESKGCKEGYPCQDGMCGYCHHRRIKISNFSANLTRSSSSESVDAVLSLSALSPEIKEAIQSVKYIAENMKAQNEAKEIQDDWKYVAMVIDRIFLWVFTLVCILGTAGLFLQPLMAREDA
compound,measurement,setting,value
Clc1ccc(N2C[C@@H]3CCNC[C@@H]32)cn1,EC50,[1],1.39 µM
same,Activity,[2],94%
same,EC50,[3],0.0374 µM
same,Activity,[4],129%
same,Activity,Rattus norvegicus,50%
same,Ki,[5],0.00012 µM
